Measurements published in ChEMBL document CHEMBL1130881, “Novel imidazole derivatives with subtype-selective antimuscarinic activity (1)” (Bioorg Med Chem Lett, 1998).

Molecular target: Muscarinic acetylcholine receptor M3 (Cavia porcellus) (UniProt Q8VH26)
Test: Antimuscarinic activity was evaluated against muscarinic M3 receptor in Guinea-Pig ileum
Assay type: tissue-based

Sequence of Muscarinic acetylcholine receptor M3 (Cavia porcellus) (Q8VH26 1-587): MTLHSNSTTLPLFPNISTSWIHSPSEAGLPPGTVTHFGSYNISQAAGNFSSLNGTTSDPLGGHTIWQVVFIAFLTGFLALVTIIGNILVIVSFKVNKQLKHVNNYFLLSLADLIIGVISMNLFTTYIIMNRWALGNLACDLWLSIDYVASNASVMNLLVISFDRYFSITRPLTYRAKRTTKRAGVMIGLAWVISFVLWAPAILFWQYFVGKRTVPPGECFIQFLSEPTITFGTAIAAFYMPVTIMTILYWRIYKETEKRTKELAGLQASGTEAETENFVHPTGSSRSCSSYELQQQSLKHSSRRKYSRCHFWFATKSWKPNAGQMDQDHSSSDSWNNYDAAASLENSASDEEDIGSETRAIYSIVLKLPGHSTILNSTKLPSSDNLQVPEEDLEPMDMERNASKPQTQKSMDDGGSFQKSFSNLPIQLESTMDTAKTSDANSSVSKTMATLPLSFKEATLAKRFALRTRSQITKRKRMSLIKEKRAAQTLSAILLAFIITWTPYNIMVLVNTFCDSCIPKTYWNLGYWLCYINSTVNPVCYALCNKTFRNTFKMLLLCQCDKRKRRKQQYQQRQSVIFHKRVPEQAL

Row | Structure (SMILES) | Kb [nM]
1 | CC(C)(C)NCCC(c1ccccc1)c1ccccc1 | 792
2 | Cc1ncn(CCC(C(N)=O)(c2ccccc2)c2ccccc2)c1C | 2.7
3 | NC(=O)C(CCN1CCCC1)(c1ccccc1)c1ccccc1 | 5.59
4 | CC(C)(C)c1nccn1CCC(C(N)=O)(c1ccccc1)c1ccccc1 | 30.2
5 | CCCc1ncn(CCC(C(N)=O)(c2ccccc2)c2ccccc2)c1CCC | 100
6 | CCCc1nccn1CCC(C(N)=O)(c1ccccc1)c1ccccc1 | 177
7 | Cc1cn(CCC(C(N)=O)(c2ccccc2)c2ccccc2)cn1 | 10.1
8 | Cc1cncn1CCC(C(N)=O)(c1ccccc1)c1ccccc1 | 0.86
9 | NC(=O)C(CCn1cnc2ccccc21)(c1ccccc1)c1ccccc1 | 2130
10 | c1ccc(C(CCN2CCCCC2)c2ccccc2)cc1 | 69.6
11 | CC(CC(c1ccccc1)c1ccccc1)NC(C)(C)C (centres undefined) | 67.7
12 | NC(=O)C(CCn1ccnc1)(c1ccccc1)c1ccccc1 | 5.07
13 | CCN(CC)CCC(c1ccccc1)c1ccccc1 | 197
14 | Cc1nccn1CCC(C(N)=O)(c1ccccc1)c1ccccc1 | 0.32
15 | CC(C)c1nccn1CCC(C(N)=O)(c1ccccc1)c1ccccc1 | 1.8
16 | c1ccc(C(CCn2ccnc2)c2ccccc2)cc1 | 89.1
17 | CCc1ncn(CCC(C(N)=O)(c2ccccc2)c2ccccc2)c1CC | 3.98
18 | CCc1nccn1CCC(C(N)=O)(c1ccccc1)c1ccccc1 | 78.1
19 | N#CC(CCN1CCCC1)(c1ccccc1)c1ccccc1 | 65.7
